Read-outs that look alike come from different tables or passages of the source.
How the values were obtained:
Laodelphax striatellus [1] = test: Root dipping application test, Laodelphax striatellus (Reference Test Example 1); type: in vivo; conditions: 0.5 μg/seedling, wheat seedlings, 3 days after release
Excerpt: A test solution adjusted to a predetermined concentration (10% aqueous acetone solution) was applied to the root of wheat seedlings in water culture. […] The test was duplicated.
As is apparent from Table 15, the systemic insecticidal activity of 16-keto aspergillimide was much higher than that of a control compound, Asperparaline A.
The 16-keto aspergillimide and Asperparaline A used in this test were obtained according to methods described in The Journal of Antibiotics, 1997, 50(10), 840-846. This is true of the following test examples.

[2] = tested on: Haemaphysalis longicornis; test: Tickcidal effect against Haemaphysalis longicornis, dry film in glass vial (Test Example 5); type: in vivo; conditions: for pest or weed control at 1.5 ppm: other agent 1.5 ppm alone (16-keto aspergillimide 0 ppm); for pest or weed control at 3 ppm: other agent 3 ppm alone (16-keto aspergillimide 0 ppm); for pest or weed control at 30 ppm: other agent 30 ppm alone (16-keto aspergillimide 0 ppm); for Death rate (%): Table 10; for Theoretical value (%) by Colby's formula: Table 12
Procedure: Acetone solutions (30 μl) adjusted to predetermined concentrations were placed in 4 mL-volume glass vials. The vials were placed on a shaker, and a dry film of the compound was prepared on the inner wall of the vials. The vials were dried for 24 hr or more. Larvae (10 or more heads) were released in the vials, and the vials were lidded. The vials were then left to stand in a humidistat chamber (25° C., humidity 85%, fully darkened conditions). […] The test was duplicated.
(§1) Colby's formula: Theoretical value (%)=100−(A×B)/100

Laodelphax striatellus [3] = test: Foliage application test for Laodelphax striatellus (Test Example 2); type: in vivo; conditions: other insecticide 0.313 ppm alone (16-keto aspergillimide 0 ppm); for Death rate (%): foliage application, 3 days after release
Excerpt: as §1

Laodelphax striatellus [4] = test: Laodelphax striatellus soil drenching application test (Test Example 1); conditions: for Death rate (%): soil drenching, 3 days after release
Procedure: Test solutions adjusted to a predetermined concentration (10% aqueous acetone solution) were applied to rice seedling in a pot by soil drenching. The rice seedling was allowed to stand for 3 days. Second instar larvae were released and was then allowed to stand in a humidistat chamber (light period 16 hr−dark period 8 hr) (25° C.).
Death rate (%)={number of dead larvae/(number of survived larvae+number of dead larvae)}×100
wherein A: 100−(death rate when application was performed only with 16-keto aspergillimide); and

[5] = tested on: Haemaphysalis longicornis; test: Tickicidal effect against Haemaphysalis longicornis on body surface of mouse (Test Example 6); type: in vivo; conditions: other agent 6 μg/2 cm^2 alone (16-keto aspergillimide 0 μg/2 cm^2)
Procedure: Skin hair on the back of mouse (ICR, male, 5 week olds) was clipped in a diameter of about 2 cm, and a 15-mL polystyrene conical tube cut to have a height of about 1.5 cm was bonded to the body surface of the mouse with an instant adhesive. Test solutions (20 μl) adjusted with ethanol were dropped on the body surface of mice within the bonded tube. After thorough drying, larvae (10 or more heads) were released within the tube, and the tube was lidded. […] The test was hexaplicated.
as §1

[6] = tested on: Nilaparvata lugens which is low-sensitive to imidacloprid; test: Foliage application test for Nilaparvata lugens, imidacloprid low-sensitive strain (Test Example 4); type: in vivo; conditions: low-sensitive strain, 6 days after release
Procedure: (§2) Test solutions adjusted to a predetermined concentration (50% aqueous acetone solution) applied to rice seedlings in a pot for foliage application. […] The test was duplicated.
(§3) For comparison, a test was carried out in the same manner as described above, except that a Nilaparvata lugens strain which is highly sensitive to imidacloprid was used.
(§4) Regarding the origin of the test insect pests, Nilaparvata lugens which is low-sensitive to imidacloprid was an insect which had been collected outdoors in Kumamoto Prefecture, 2007, and Nilaparvata lugens which is sensitive to imidacloprid was an insect which had been collected in Kagoshima Prefecture and was then subjected to indoor successive raising.

[7] = tested on: Nilaparvata lugens which is sensitive to imidacloprid; test: Foliage application test for Nilaparvata lugens, imidacloprid-sensitive strain (Test Example 4, comparison); type: in vivo; conditions: 6 days after release
Procedure: as §2, §3, §4

[8] = Haemaphysalis longicornis, 48 h, read-out: Death rate (%), Table 9, 2 days after release
[9] = other insecticide 0.002 mg/seedling alone (16-keto aspergillimide 0 mg/seedling)
[10] = treatment concentration 1.25 ppm
[11] = other insecticide 0.005 mg/seedling alone (16-keto aspergillimide 0 mg/seedling)

`C[C@H]1CCN2C[C@@]34C[C@]5(CC(=O)N(C)C5=O)C(C)(C)[C@@H]3C[C@]12C(=O)N4C` [Asperparaline A, reference compound] was tested, and the “Death rate (%) for each amount of test chemical compound” value (Laodelphax striatellus [1]) was 0%.

With `C/C(=N\C#N)N(C)Cc1ccc(Cl)nc1` [Acetamiprid, acetamiprid] the pest or weed control at 1.5 ppm [2, 8] was 24% and the pest or weed control at 3 ppm [2, 8] was 55%.

In the case of `CN1COCN(Cc2cnc(Cl)s2)/C1=N\[N+](=O)[O-]` [Thiamethoxam, thiamethoxam], the pest or weed control at 30 ppm ([2]; Haemaphysalis longicornis, 48 h, read-out: Death rate (%), Table 10, 2 days after release) is reported as 21% and the pest or weed control at 60 ppm ([2]; Haemaphysalis longicornis, 48 h, read-out: Death rate (%), Table 10, other agent 60 ppm alone (16-keto aspergillimide 0 ppm), 2 days after release) is reported as 26%.

ivermectin was tested, and the “Death rate (%)” value ([2]; other agent 200 ppm alone (16-keto aspergillimide 0 ppm), 2 days after release) was 0%, the “Death rate (%)” value ([2]; other agent 400 ppm alone (16-keto aspergillimide 0 ppm), 2 days after release) was 0% and the “Theoretical value (%) by Colby's formula” value ([2]; other agent 200 ppm alone (16-keto aspergillimide 0 ppm)) was 0%. For the same compound, the “Theoretical value (%) by Colby's formula” value ([2]; other agent 400 ppm alone (16-keto aspergillimide 0 ppm)) was 0%.

In the case of `CN/C(=N\[N+](=O)[O-])NCc1cnc(Cl)s1` [Clothianidin, clothianidin], the pest or weed control at 5 ppm ([2]; Haemaphysalis longicornis, 48 h, read-out: Death rate (%), Table 10, other agent 5 ppm alone (16-keto aspergillimide 0 ppm), 2 days after release) is reported as 35%, the pest or weed control at 10 ppm ([2]; Haemaphysalis longicornis, 48 h, read-out: Death rate (%), Table 10, other agent 10 ppm alone (16-keto aspergillimide 0 ppm), 2 days after release) is reported as 62% and the “Theoretical value (%) calculated by the Colby's formula” value (“Theoretical value (%) calculated” for short) (Laodelphax striatellus [3]) is reported as 4%. For the same compound, the “Death rate (%)” value (Laodelphax striatellus [3]) was 4%.

Work on `CC(c1ccc(C(F)(F)F)nc1)S(C)(=O)=NC#N` (centres unmarked) [Sulfoxaflor, sulfoxaflor] yielded a pest or weed control at 75 ppm ([2]; Haemaphysalis longicornis, 48 h, read-out: Death rate (%), Table 10, other agent 75 ppm alone (16-keto aspergillimide 0 ppm), 2 days after release) of 48% and a pest or weed control at 150 ppm ([2]; Haemaphysalis longicornis, 48 h, read-out: Death rate (%), Table 10, other agent 150 ppm alone (16-keto aspergillimide 0 ppm), 2 days after release) of 60%.

For `CCN(Cc1ccc(Cl)nc1)/C(=C/[N+](=O)[O-])NC` [Nitenpyram, nitenpyram], the pest or weed control at 40 ppm ([2]; Haemaphysalis longicornis, 48 h, read-out: Death rate (%), Table 9, other agent 40 ppm alone (16-keto aspergillimide 0 ppm), 2 days after release) was 12%.

With `CN/C(=N/CC1CCOC1)N[N+](=O)[O-]` (centres unmarked) [Dinotefuran, dinotefuran] the pest or weed control at 30 ppm [2, 8] was 12%, the pest or weed control at 50 ppm ([2]; Haemaphysalis longicornis, 48 h, read-out: Death rate (%), Table 9, other agent 50 ppm alone (16-keto aspergillimide 0 ppm), 2 days after release) was 14% and the “Theoretical value (%) calculated” value (Laodelphax striatellus [4]) was 4%. The “Death rate (%)” value (Laodelphax striatellus [4]; [9]) was 4%.

In the case of `N#Cc1nn(-c2c(Cl)cc(C(F)(F)F)cc2Cl)c(N)c1[S+]([O-])C(F)(F)F` (centres unmarked) [Fipronil, fipronil], the “Theoretical value (%) calculated” value (Laodelphax striatellus [4]) is reported as 5%, the “Death rate (%)” value (Laodelphax striatellus [4]; [9]) is reported as 5% and the “Theoretical value (%) calculated” value (Laodelphax striatellus [3]) is reported as 21%. The “Death rate (%)” value (Laodelphax striatellus [3]) was 21%.

With `O=[N+]([O-])NC1=NCCN1Cc1ccc(Cl)nc1` [Imidacloprid, imidacloprid, reference compound] the “Theoretical value (%) by Colby's formula” value [5] was 22%, the “Death rate (%)” value ([5]; mouse body surface, 3 days after release) was 22% and the “Death rate (%)” value [6, 10] was 15%. For the same compound, the “Death rate (%)” value ([6]; treatment concentration 5 ppm) was 55%, the “Death rate (%)” value ([6]; treatment concentration 20 ppm) was 85% and the pest or weed control at 1.5 ppm [2, 8] was 26%. The pest or weed control at 3 ppm [2, 8] was 33%, the “Theoretical value (%) calculated” value (Laodelphax striatellus [4]; [11]) was 5% and the “Death rate (%)” value (Laodelphax striatellus [4]; [11]) was 5%. The “Theoretical value (%) calculated” value (Laodelphax striatellus [3]) was 5%, the “Death rate (%)” value (Laodelphax striatellus [3]) was 5% and the “Death rate (%)” value [7, 10] was 100%. The “Death rate (%)” value ([7]; treatment concentration 5 ppm) was 100% and the “Death rate (%)” value ([7]; treatment concentration 20 ppm) was 100%.

Reference: US20110263520A1, “COMPOSITION FOR USE IN CONTROLLING HARMFUL ORGANISMS THAT CONTAINS 16-KETO ASPERGILLIMIDE” (priority 2008, published 2011)
